In patent publication US20230241232A1, “Size-Dependent Brain and Lymphatic Distribution of Macromolecular Drug Delivery Platform” (The United States of America, As Represented by the …, priority 2020, published 2023):

Target: T1, scavenger receptor A (Mus musculus, UniProt P30204)
T1 construct: endogenous in cells; host or cells: Raw 264.7 macrophages
T1 sequence (P30204 1-458): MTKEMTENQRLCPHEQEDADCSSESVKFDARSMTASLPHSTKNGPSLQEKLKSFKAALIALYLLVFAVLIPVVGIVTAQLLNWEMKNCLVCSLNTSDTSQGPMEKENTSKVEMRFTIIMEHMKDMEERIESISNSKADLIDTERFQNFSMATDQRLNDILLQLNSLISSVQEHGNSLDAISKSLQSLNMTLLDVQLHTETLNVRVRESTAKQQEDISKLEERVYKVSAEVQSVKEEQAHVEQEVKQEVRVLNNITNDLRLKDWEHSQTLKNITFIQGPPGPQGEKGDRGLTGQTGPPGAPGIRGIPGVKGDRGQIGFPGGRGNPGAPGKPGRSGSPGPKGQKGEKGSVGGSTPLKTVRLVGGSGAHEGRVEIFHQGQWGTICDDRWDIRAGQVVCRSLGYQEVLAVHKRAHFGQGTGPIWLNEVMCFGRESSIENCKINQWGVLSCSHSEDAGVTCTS
Test: Competitive inhibition of polymer-488 cell uptake by poly I / poly C in Raw 264.7 macrophages
Format: cell-based
Details: for inhibition of polymer-488 fluorescence (% control): Raw 264.7 cells, various inhibitor concentrations, polymer-488 constant, 37° C. 3 hours, FIG. 4; for inhibition of scavenger receptor interaction of polymer-488 (fluorescence): Raw 264.7 macrophages, various concentrations of polymer-488, with or without inhibitor, FIG. 3
Description: The fluorescently labelled poly(L-lysine succinylated) was also tested for cell uptake in a macrophage cell line Raw 264.7 in the presence of competitive inhibitors and relevant controls. […] At higher concentrations of polymer-488, fluorescence is seen due to competing off the poly I.
In a follow up study, cells were treated with various concentrations of either poly I or poly C while polymer-488 concentration remained constant. In this study, Raw 264.7 cells were incubated overnight at 400,000 cells/mL. The cells were then treated with various concentrations of polymer-488 and either 200 μg/mL poly I, 200 μg/mL poly C, or no inhibitor. The cells were incubated at 37° C. for 3 hours, washed 3 times with media, and fluorescence measured.

Substance | inhibition of polymer-488 fluorescence (% control) | inhibition of scavenger receptor interaction of polymer-488 (fluorescence)
polycytidylic acid [poly C] | virtually no inhibition of fluorescence | not with poly C
polyinosinic acid [poly I] | dose-dependent inhibition | inhibition of scavenger receptor interaction
